Data published in patent publication US20150119363A1, “METHODS OF TREATING BACTERIAL INFECTIONS” (Rampex Pharmaceuticals, Inc., priority 2012, published 2015).

Experiments:
[1] = test system: Klebsiella pneumonia (KPM1097) NDM-1, KPC-2; test: Biapenem MIC at various concentrations of Compound 5; format: cell-based; conditions: KPM1097 NDM-1, KPC-2
[2] = test system: Klebsiella oxytoca KX1017 (KPC-2, OXA-2, SHV-30); test: Checkerboard assay, Compound 5 with biapenem; format: cell-based; conditions: KX1017
From the text: (§1) The potentiation effect is observed by the reduction of the minimum inhibitory concentration of β-lactam antibiotics in the presence of β-lactamase inhibitors (BLIs). […] Methods for Dilution of Antimicrobial Susceptibility Tests for Bacteria That Grow Aerobically—Eighth Edition; Approved Standard. CLSI Document M07-A8, 2009). In this assay, multiple dilutions of two drugs, namely BLI and β-lactam (biapenem), are being tested, alone and in combination, at concentrations equal to, above and below their respective minimal inhibitory concentrations (MICs). BLIs are solubilized in 10% DMSO at 10 mg/mL. Stock solutions are further diluted, according to the needs of a particular assay, in Mueller Hinton Broth (MHB). Stock solution can be stored at −80° C.
(§2) The checkerboard (CB) assay is performed in microtiter plates. Biapenem is diluted in the x axis, each column containing a single concentration of antibiotic. BLIs are diluted in the y axis, each row containing an equal concentration of BLI. The result of these manipulations is that each well of the microtiter plate contains a unique combination of concentrations of the two agents. The assay is performed in MHB with a final bacterial inoculum of 5×10^5 CFU/mL (from an early-log phase culture). Microtiter plates are incubated during 20 h at 35° C. and are read using a microtiter plate reader (Molecular Devices) at 650 nm as well as visual observation using a microtiter plate reading mirror.

[3] = test system: Klebsiella pneumoniae KP1004 (KPC-2); test: Checkerboard assay, Compound 5 with biapenem; format: cell-based; conditions: KP1004
From the text: as §1, §2

[4] = test system: Klebsiella pneumoniae KP1082 (KPC-2, SHV-1); test: Checkerboard assay, Compound 5 with biapenem; format: cell-based; conditions: KP1082
From the text: as §1, §2

[5] = test system: Klebsiella oxytoca KX1018 (KPC-2, SHV-40, OXY-1); test: Checkerboard assay, Compound 5 with biapenem; format: cell-based; conditions: KX1018
From the text: as §1, §2

[6] = test system: Escherichia coli EC1007 (KPC-3); test: Checkerboard assay, Compound 5 with biapenem; format: cell-based; conditions: EC1007
From the text: as §1, §2

EC1007 KPC-3 = test: Dose titration biapenem potentiation assay (MPC1); format: cell-based, Escherichia coli; conditions: biapenem 1 μg/mL
Procedure, shortened: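 Growth of carbapenemase-expressing strains measured with biapenem held at a sub-inhibitory 1 μg/mL; BLI compounds titrated from a top concentration of 40 μg/mL. MPC1 is the inhibitor concentration that restores growth inhibition by biapenem.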

O=C(O)C[C@@H]1CC[C@H](NC(=O)Cc2cccs2)B(O)O1 [Compound 5, 2-((3R,6S)-2-hydroxy-3-(2-(thiophen-2-yl)acetamido)-1,2-oxaborinan-6-yl)acetic acid]
Biapenem MIC ([1]; Compound 5 0.31 μg/ml): 2 µg/mL | Biapenem MIC ([1]; Compound 5 0.63 μg/ml): 1 µg/mL | Biapenem MIC ([1]; Compound 5 5 μg/ml): 1 µg/mL | Biapenem MIC ([1]; Compound 5 10 μg/ml): 1 µg/mL | Biapenem MIC ([1]; Compound 5 20 μg/ml): 1 µg/mL | Biapenem MIC ([1]; Compound 5 […]): 1 µg/mL | Biapenem MIC ([2]; Compound 5 0.31 mg/L): Y (Y = MIC of 0.5 mg/L to 4 mg/L.) | Biapenem MIC ([2]; Compound 5 0.625 mg/L): X (X = MIC of less than 0.5 mg/L.) | Biapenem MIC ([2]; Compound 5 5 mg/L): X (X = MIC of less than 0.5 mg/L.) | Biapenem MIC ([2]; Compound 5 10 mg/L): X (X = MIC of less than 0.5 mg/L.) | Biapenem MIC ([3]; Compound 5 0.31 mg/L): X (X = MIC of less than 0.5 mg/L.) | Biapenem MIC ([3]; Compound 5 0.625 mg/L): X (X = MIC of less than 0.5 mg/L.) | Biapenem MIC ([3]; Compound 5 5 mg/L): X (X = MIC of less than 0.5 mg/L.) | Biapenem MIC ([3]; Compound 5 10 mg/L): X (X = MIC of less than 0.5 mg/L.) | Biapenem MIC ([3]; Compound 5 […]): X (X = MIC of less than 0.5 mg/L.) | Biapenem MIC ([4]; Compound 5 0.31 mg/L): X (X = MIC of less than 0.5 mg/L.) | Biapenem MIC ([4]; Compound 5 0.625 mg/L): X (X = MIC of less than 0.5 mg/L.) | Biapenem MIC ([4]; Compound 5 5 mg/L): X (X = MIC of less than 0.5 mg/L.) | Biapenem MIC ([4]; Compound 5 10 mg/L): X (X = MIC of less than 0.5 mg/L.) | Biapenem MIC ([4]; Compound 5 […]): X (X = MIC of less than 0.5 mg/L.) | Biapenem MIC ([5]; Compound 5 0.31 mg/L): X (X = MIC of less than 0.5 mg/L.) | Biapenem MIC ([5]; Compound 5 0.625 mg/L): X (X = MIC of less than 0.5 mg/L.) | Biapenem MIC ([5]; Compound 5 5 mg/L): NG (NG = No Growth.) | Biapenem MIC ([5]; Compound 5 10 mg/L): NG (NG = No Growth.) | Biapenem MIC ([5]; Compound 5 […]): X (X = MIC of less than 0.5 mg/L.) | Biapenem MIC ([6]; Compound 5 0.31 mg/L): X (X = MIC of less than 0.5 mg/L.) | Biapenem MIC ([6]; Compound 5 0.625 mg/L): X (X = MIC of less than 0.5 mg/L.) | Biapenem MIC ([6]; Compound 5 5 mg/L): X (X = MIC of less than 0.5 mg/L.) | Biapenem MIC ([6]; Compound 5 […]): X (X = MIC of less than 0.5 mg/L.) | BPM MPC1 EC1007 KPC-3 (EC1007 KPC-3): X (X = MPC1 of less than 1 μg/mL.)
